Patent US20130157924A1, “REDUCING TRANSMISSION OF SEXUALLY TRANSMITTED INFECTIONS” (THE REGENTS OF THE UNIVERSITY OF CALIFORNIA, priority 2010, published 2013)
“Also recorded” adds a separate entry of the source.

Legend:
[1] = tested on: HIV-1 (IIIB); test: SEVI mediated enhancement of HIV infection, CEM 5.25 cells (luciferase); format: cell-based; conditions: 25 μg/mL SEVI fibrils; compound 5.5, 11 and 16.5 μg/mL; 72 hrs
Procedure: CEM 5.25 cells were exposed to infectious HIV-1 (IIIB) for 2 hours in the absence or presence (25 μg/mL) of SEVI fibrils; BTA-EG4 (FIG. 5A) and EG6 (FIG. 5B) was added at concentrations of 5.5, 11 and 16.5 μg/mL.

[2] = tested on: HIV-1 IIIB; test: Semen mediated enhancement of HIV infection, CEM 5.25 cells (luciferase); format: cell-based; conditions: 50% semen, diluted 15 fold; 48 hours
Procedure: After 10 minutes these stocks were diluted 15 fold into CEM 5.25 cells.
After 10 minutes, the stocks were diluted 15 fold and incubated with CEM 5.25 cells. […] After 90 minutes cells were washed to remove any unbound virus and bound virions were detected using a p24 ELISA.

[3] = tested on: HIV-1 IIIB; test: Virus binding assay, HIV-1 IIIB virions to Jurkat cells (p24); format: cell-based; conditions: for SEVI-enhanced binding of HIV-1 IIIB virions to Jurkat cells (p24 ELISA): SEVI-pretreated virions, 90 min, increasing concentrations
Procedure: After 90 minutes, cells were washed to remove any unbound virus and bound virions were detected using a p24 ELISA. […]
After 90 min, cells were washed to remove any unbound virus, and bound virions were detected using an HIV-1 p24 antigen capture assay (Advanced Bioscience Laboratory). […]
After 90 min, cells were washed to remove any unbound virus, and bound virions were detected using an HIV-1 p24 antigen capture assay (Advanced Bioscience Laboratory, Rockville, Md.).

[4] = tested on: cervical epithelial cell lines SiHa, A2En (endocervical), and 3EC1 (ectocervical); test: Viability of cervical cell lines (resazurin, AlamarBlue); format: cell-based, human; conditions: up to 10 times the IC50 (66 μg/ml)
Description: Loss of this protective layer leads to an increased ability for HIV-1 to cross the mucosal barrier, and inflammatory effects drive recruitment of HIV-1 target cells, further decreasing the natural barriers against successful transmission of HIV. […] To do this, the following cell lines were used: 1) SiHa cells, a cervical carcinoma cell line; 2) A2En cells, a primary cell-derived line from the endocervical […]; and 3) 3EC1 cells, a primary cell-derived line from the ectocervical […]. […] Viability was assessed at 24 h by using the resazurin cytotoxicity assay. Resazurin cytotoxicity data were confirmed by trypan blue counts of viable cells.

[5] = tested on: A2En, 3EC1, and SiHa Cells; test: Cytokine and chemokine induction in cervical cell lines (ELISA); conditions: 6 h; varying concentrations up to 66 μg/ml
Procedure: Cytokine and chemokine production was assessed at 12 h by ELISA (R&D systems). Cells were also treated with 0.1% nonoxynol-9 as a positive control for cytotoxicity and with 0.1 μg/ml FSL1, a synthetic diacylated lipoprotein derived from Mycoplasma salivarium (InvivoGen, San Diego, Calif.), as a positive control for chemokine production.
Nonoxynol-9 (non-9), a spermicide, was used as a positive control. […] Cell culture supernatants were then assessed for the presence of the inflammatory cytokines and chemokines Mip-3α (FIG. 5B), IL-8 (FIG. 16C), IL-1β, and TNF-α.

[6] = biological target: T1, SEVI fibrils (Homo sapiens, UniProt P15309); test: Fluorescence polarization, displacement of FITC-heparin from SEVI fibrils; format: binding; design: PAP248-286 and biotinylated PAP248-286, in which a biotin was added to the amino terminus of the peptide, was synthesized; made in house; host or cells: chemical peptide synthesis; fibrils formed by agitation in PBS at 37 °C for 72 h; conditions: 16 μg/ml FITC-heparin; 1 h room temperature
T1 sequence (P15309 248-286 limits assumed): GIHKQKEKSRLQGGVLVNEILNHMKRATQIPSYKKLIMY
Procedure: Samples were incubated 1 h at room temperature and read on a PerkinElmer Life Sciences Envision 2012 multilabel reader (PerkinElmer, Waltham, Mass.) at an excitation λ=480 nm and emission λ=535 nm. The horizontal and vertical polarized fluorescence intensities were recorded, and the calculated polarization was determined in millipolarization units.
In order to find other small molecules that bind SEVI, a fluorescence polarizing screen was developed. Polarized light passed over a small unbound molecule with a fluorescent moiety will produce rapid rotation and will result in fluorescence that is de-polarized. Polarized light passed over SEVI bound to a small molecule with a fluorescent moiety will result in fluorescence that is polarized. […] Samples were incubated at excitation of λ=480 and emission λ=535 (FIG. 8, left graph). […] Samples were incubated for 1 hour at room temperature and polarized fluorescence was measured.
ThT is able to intercalate into the generic β-sheet structure of amyloid fibrils. […] This molecule binds to Aβ fibrils and interferes with the ability of Aβ-binding proteins to interact with the fibrils.

[7] = biological target: aggregated Alzheimer disease-related Aβ(1-42) peptides (Homo sapiens, UniProt P05067); conditions: read-out: Kd for binding to aggregated Aβ(1-42) peptides; same fluorescence binding assay
aggregated Alzheimer disease-related Aβ(1-42) peptides, sequence (P05067 672-713): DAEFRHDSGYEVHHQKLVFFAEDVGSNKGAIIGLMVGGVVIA
Procedure: These incubations were performed in duplicate runs and allowed to equilibrate overnight at room temperature. After equilibration, each solution was centrifuged at 16,000×g for 30 min. The supernatants were separated from the pelleted fibrils, and 220 μl of fresh PBS was added to resuspend the pellets. […] Error bars represent standard deviations from the mean. […] The data were processed using Origin 7.0 (MicroCal Software, Inc., Northampton, Mass.).

[8] = tested on: Jurkat cells; test: Flow cytometry, binding of SEVI-biotin fibrils to Jurkat cell surface (SA-FITC); format: cell-based, human; conditions: for MFI (mean fluorescent intensity) / SA-FITC+ (cells with bound fibrils): SEVI-biotin 1 h
Procedure: Cells were incubated for 1 h at 37° C., washed, and stained for 1 h with a covalent conjugate of streptavidin and fluorescein isothiocyanate (SA-FITC). Cells were washed and run on an Accuri C6 Flow Cytometer (Accuri Cytometers, Ann Arbor, Mich.). Data were analyzed using FlowJo (TreeStar Inc, Ashland, Oreg.).
After that time, fibrillar structures were examined by ThT fluorescence. ThT changes in fluorescence intensity when intercalated into the β-sheet structure common to amyloid fibrils; therefore, ThT fluorescence serves as a surrogate measure for fibrillar structure of SEVI and for the stability of SEVI fibrils. […] Binding of the fibrils to the cell surface was detected using SA-FITC. […] Surface-bound fibrils were detected with SA-FITC and measured by flow cytometry. Results are shown as percentage of cells with bound fibrils (SA-FITC+) as well as mean fluorescent intensity (MFI).

[9] = tested on: HIV-1ADA
Procedure: Treated virions were then added to 5×10^4 CEM-M7 cells/well in 96-well flat-bottomed tissue culture plates. After 2 h, the medium […] were replaced. Infection was assayed after 48 h by quantifying luciferase expression using the Promega Dual-Luciferase assay and a Beckman Coulter DTX880 plate reader.

[10] = tested on: HIV-1BaL
Procedure: Cells were washed at 3 h, and infection was analyzed at day 4 using the HIV-1 p24 antigen capture assay (Advanced Bioscience Laboratory).

[11] = tested on: HIV-1ADA; conditions: individual semen sample, 50%; R5 virus
Procedure: (§1) After 15 min, the semen and virus mixture was diluted 1:15 into 5×10^4 CEM-M7 cells/well in a 96-well plate. Cells were washed after 1 h, and infection was assayed at 48 h as above.
(§2) As human semen has been reported to be toxic to cultured cells, a protocol that minimized this toxicity was used. Pooled human semen was added to HIV-1IIIB virus in a 1:1 dilution. After 15 min, this solution was added to cells at a 1:15 dilution for a final concentration of 3.3%.

[12] = tested on: HIV-1IIIB; conditions: pooled human semen 1:1, then 1:15; 5.5, 11, 22.5 μg/ml
Procedure: as §1, §2

[13] = tested on: A2En cells; conditions: 15 μg/ml SEVI; 5.5, 11, 22.5 μg/ml; 24 h
Procedure: Supernatant was collected at 6 and 24 h, and the production of the chemokines IL-8 and Mip-3α was measured by ELISA (R&D Systems). […] After 6 h, supernatants were collected, and the production of the chemokines IL-8 and Mip-3α was measured by ELISA (R&D systems, Minneapolis, Minn.).
HIV stimulates the release of MIP-3 and IL-8 from vaginal and cervical epithelial cells.

[14] = tested on: HIV-1ADA; conditions: 22.5 μg/ml BTA-EG6
Procedure: After 90 min, cells were washed to remove any unbound virus, and bound virions were detected using a p24 ELISA. […] At 24 h, supernatants were collected and analyzed by ELISA for the presence of IL-8.
Surface-bound virions were then measured by p24 ELISA after washing off unbound virus. […] Additionally, this experiment was performed using A2En cells, a primary cell-derived endocervical cell line.

[15] = heparin (100 μg/ml) positive control

Cc1ccc2nc(-c3ccc(NCCOCCOCCOCCO)cc3)sc2c1 [BTA-EG4]
SEVI mediated enhancement of HIV infection (luciferase activity) [1]: decreasing levels of luciferase activity; also recorded: inhibit SEVI mediated enhancement of HIV infection | semen mediated enhancement of HIV infection (luciferase activity) [2]: decrease in luciferase activity; also recorded: inhibit semen mediated enhancement of HIV Infection | SEVI-enhanced binding of HIV-1 IIIB virions to Jurkat cells (p24 ELISA) [3]: decrease in HIV-1 binding to the cells; also recorded: decrease SEVI enhanced binding of HIV to target cells | cell viability [4]: did not affect the cell viability; also recorded: not toxic to cervical epithelial Cells | production of inflammatory cytokines and chemokines (Mip-3α, IL-8, IL-1β, TNF-α) [5]: do not induce cytokine production in cervical epithelial cells | binding to SEVI fibrils (displacement of FITC-heparin, polarized fluorescence) [6]: capable of binding SEVI; also recorded: detects binding

Cc1ccc2nc(-c3ccc(NCCOCCOCCOCCOCCOCCO)cc3)sc2c1 [BTA-EG6]
SEVI mediated enhancement of HIV infection (luciferase activity) [1]: decreasing levels of luciferase activity; also recorded: inhibit SEVI mediated enhancement of HIV infection | semen mediated enhancement of HIV infection (luciferase activity) [2]: decrease in luciferase activity; also recorded: inhibit semen mediated enhancement of HIV Infection | binding of HIV virions to the cell surface in the absence of SEVI ([3]; Jurkat cells, no SEVI): no effect on the binding of HIV virions to the cell surface; also recorded: no effect on the binding of HIV-1 virions alone to cells | SEVI-enhanced binding of HIV-1 IIIB virions to Jurkat cells (p24 ELISA) [3]: decrease in HIV-1 binding to the cells; also recorded: decrease SEVI enhanced binding of HIV to target cells; also recorded: efficiently inhibited SEVI-mediated enhancement of HIV-1IIIB attachment to Jurkat cells | SEVI-enhanced binding of HIV-1 IIIB virions to Jurkat cells (p24 ELISA) ([3]; listed as BTAEG6): efficiently abrogated | Kd [7]: 111 ± 32 nM | MFI (mean fluorescent intensity) ([8]; BTA-EG6 high (27 μg/ml)): 38.7 | SA-FITC+ (cells with bound fibrils) ([8]; BTA-EG6 high (27 μg/ml)): 21.2% | MFI (mean fluorescent intensity) ([8]; BTA-EG6 low (5.5 μg/ml)): 95.3 | SA-FITC+ (cells with bound fibrils) ([8]; BTA-EG6 low (5.5 μg/ml)): 36.6% | interaction of SEVI fibrils with the cell surface ([8]; Jurkat T cells, increasing concentrations): inhibited the ability of SEVI fibrils to interact with and bind the cell surface; also recorded: inhibits the interaction of SEVI fibrils with the cell surface | SEVI-mediated enhancement of HIV-1 infection (luciferase) ([9]; 15 μg/ml SEVI, R5 strain): significant dose-dependent inhibition | infectivity of HIV-1ADA in the absence of SEVI ([9]; absence of SEVI): No effect on the infectivity of HIV-1ADA | SEVI-mediated enhancement of HIV-1 infection in PBMCs (p24) ([10]; 15 μg/ml SEVI, day 4): able to inhibit SEVI-mediated enhancement of HIV-1 infection in PBMCs | infectivity of HIV-1BaL in PBMCs in the absence of SEVI ([10]; absence of SEVI): no effect on the infectivity of HIV-1BaL | semen-mediated enhancement of HIV-1 infection (luciferase) [11]: this effect extended to infection with an R5 virus | semen-mediated enhancement of HIV-1 infection (luciferase) [12]: efficiently inhibited the semen mediated enhancement of HIV-1 infection; also recorded: inhibits semen-mediated enhancement of HIV-1 infectivity | IL-8 release from cells treated with virus and SEVI [13]: able to inhibit this release | cell viability [4]: did not affect the cell viability; also recorded: did not have any effects on cell viability; also recorded: not toxic to cervical cells | cell viability ([4]; listed as EG6): not toxic to cervical epithelial Cells | SEVI-enhanced binding of virions to A2En cells (p24) [14]: inhibited | production of inflammatory cytokines and chemokines (Mip-3α, IL-8, IL-1β, TNF-α) [5]: did not lead to the release of any of these cytokines or chemokines; also recorded: do not induce cytokine production in cervical epithelial cells; also recorded: does not induce inflammatory chemokine production in cervical epithelial cells | binding to SEVI fibrils (displacement of FITC-heparin, polarized fluorescence) [6]: capable of binding SEVI; also recorded: able to displace fluorescent heparin from the SEVI fibrils in a dose-dependent fashion; also recorded: detects binding; also recorded: binds SEVI fibrils

heparin [reference compound]
MFI (mean fluorescent intensity) [8, 15]: 376 | SA-FITC+ (cells with bound fibrils) [8, 15]: 31.7% | binding to SEVI fibrils (displacement of FITC-heparin, polarized fluorescence) [6]: polarization decreased
